How the values were obtained:
Assay in all cases: cell-based
EP4 = EP4 (Homo sapiens, UniProt P35408);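 note: inhibition of PGE2-evoked (6 nM) cAMP accumulation in BT549 breast cancer cells endogenously expressing EP4, cAMP read by HTRF competitive immunoassay after 30 min at room temperature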
EP2 = EP2 (Homo sapiens, UniProt P43116);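 note: SF295 glioblastoma cells with endogenous EP2 only, PGE2-stimulated cAMP accumulation read by HTRF competitive immunoassay, 45 min pre-incubation then 30 min at room temperature, IBMX in buffer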
Chain of EP2 (P43116 whole entry): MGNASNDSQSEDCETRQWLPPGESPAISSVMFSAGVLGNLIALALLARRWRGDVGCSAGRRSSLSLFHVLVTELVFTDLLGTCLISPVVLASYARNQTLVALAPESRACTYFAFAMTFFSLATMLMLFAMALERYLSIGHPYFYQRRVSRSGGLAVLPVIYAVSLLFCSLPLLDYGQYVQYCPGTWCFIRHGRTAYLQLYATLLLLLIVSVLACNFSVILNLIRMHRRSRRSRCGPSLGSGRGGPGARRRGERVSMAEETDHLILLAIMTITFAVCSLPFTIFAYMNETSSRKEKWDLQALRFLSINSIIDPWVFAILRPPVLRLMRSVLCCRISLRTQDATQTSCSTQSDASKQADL
Procedure: The antagonistic activities of the compounds of formula (I) on the EP2 and EP4 receptors are also determined in accordance with the following experimental method.
Human tumor cell lines expressing endogenously either EP4 or EP2 are used and cAMP accumulation in cells upon PGE2 stimulation is monitored. SF295 glioblastoma cells express high endogenous EP2 and no EP4,whereas BT549 breast cancer cells, express high endogenous EP4 levels and very low EP2 levels.
As a detection method for cAMP the HTRF (homogeneous time resolved fluorescence) Cisbio kit (HTRF cAMP dynamic 2 kit 20′000 tests Cisbio Cat. #62AM4PEC) was used, which is based on a competitive immunoassay using a Cryptate-labeled anti-cAMP antibody and d2-labeled cAMP. Native cAMP produced by cells or unlabeled cAMP (for the standard curve) compete with exogenously added d2-labeled cAMP (acceptor) for binding to monoclonal anti-cAMP-Eu3+ Cryptate (donor). A FRET signal (Fluorescence Resonance Energy Transfer) is obtained only if the labeled anti-cAMP antibody binds the d2 labelled cAMP, thus the specific signal (i.e. energy transfer) is inversely proportional to the concentration of cAMP in the standard or sample.
The SF295 cells (NCI/No. 0503170) are detached from culture dishes with a cell dissociation buffer (Invitrogen, 13151-014), and collected in growing medium (GM: RPM11640 (Invitrogen 21875)/10% FCS, 1% Penicilin/streptomycin). Cells are counted washed and resuspended in assay buffer (AB; HBSS, 20 mM HEPES, 0.2% BSA; 2 mM IBMX). 4′000 cells in 5 μl of AB are seeded per well of a small volume 384 well plate (black with flat bottom, Greiner 784076).
PGE2 (Cayman 14010, stock solution: 750 in DMSO) is used as agonist at 75 nM final concentration, corresponding to EC80.
Two point five microliters of diluted compounds are transferred into the assay plate. Plate is pre-incubated 45 minutes at room temperature. Subsequently, 2.5 microliters of PGE2 (final conc. 75 nM) are transferred into the assay plate. Plate is incubated 30 minutes at room temperature.
For each compound concentration the percentage of cAMP compared to DMSO control value as average±STDEV (each concentration is measured in duplicate) is calculated.

PTRGER4 (EP4) = PTRGER4 (EP4) (Homo sapiens, UniProt P35408);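 note: assay plate preincubated 15 min at 37 °C, after which PGE2 was added at 20 nM final and incubation continued 120 min at 37 °C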
Chain of PTRGER4 (EP4) (P35408 whole entry): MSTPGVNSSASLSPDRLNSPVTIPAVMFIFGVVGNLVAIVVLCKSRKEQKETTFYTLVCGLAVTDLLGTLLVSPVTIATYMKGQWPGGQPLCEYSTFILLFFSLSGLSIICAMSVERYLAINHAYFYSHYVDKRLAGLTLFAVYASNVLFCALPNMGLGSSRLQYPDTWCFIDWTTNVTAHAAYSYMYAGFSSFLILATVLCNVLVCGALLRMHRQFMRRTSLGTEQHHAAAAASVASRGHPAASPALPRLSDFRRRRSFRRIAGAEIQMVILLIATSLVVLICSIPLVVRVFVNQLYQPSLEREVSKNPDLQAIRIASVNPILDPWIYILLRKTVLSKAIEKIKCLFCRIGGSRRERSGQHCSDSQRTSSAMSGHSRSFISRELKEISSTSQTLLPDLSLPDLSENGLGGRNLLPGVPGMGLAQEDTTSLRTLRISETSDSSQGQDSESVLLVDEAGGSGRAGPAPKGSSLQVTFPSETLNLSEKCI

Chain of EP4 (P35408 whole entry): as above

Row | IC50 (EP4) | IC50 (EP2) | IC50 (PTRGER4 (EP4)) | Compound
1 | 68 nM | 759 nM | 187 nM | O=C(O)c1sc(-c2cc(NCCc3ccc(C(F)(F)F)cc3)ncn2)cc1F [Example 22, 3-Fluoro-5-{6-[2-(4-trifluoromethyl-phenyl)-ethylamino]-pyrimidin-4-yl}-thiophene-2-carboxylic acid]
2 | 81 nM | 376 nM | 139 nM | CCOc1cc(-c2cc(NCCc3ccc(OC)cc3)ncn2)sc1C(=O)O [Example 60, 3-Ethoxy-5-{6-[2-(4-methoxy-phenyl)-ethylamino]-pyrimidin-4-yl}-thiophene-2-carboxylic acid]
3 | 105 nM | 644 nM | 233 nM | COc1cccc(CCNc2cc(-c3cc(C(F)(F)F)c(C(=O)O)s3)ncn2)c1 [Example 63, 5-{6-[2-(3-Methoxy-phenyl)-ethylamino]-pyrimidin-4-yl}-3-trifluoromethyl-thiophene-2-carboxylic acid]
4 | 106 nM | 408 nM | 203 nM | CCOc1cc(-c2cc(NCCc3cccc(Br)c3)ncn2)sc1C(=O)O [Example 79, 5-{6-[2-(3-Bromo-phenyl)-ethylamino]-pyrimidin-4-yl}-3-ethoxy-thiophene-2-carboxylic acid]
5 | 125 nM | 318 nM | 554 nM | CCOc1cc(-c2cc(NCCc3cccc(F)c3)ncn2)sc1C(=O)O [Example 81, 3-Ethoxy-5-{6-[2-(3-fluoro-phenyl)-ethylamino]-pyrimidin-4-yl}-thiophene-2-carboxylic acid]
6 | 13 nM | 208 nM | 14 nM | CCOc1cc(-c2cc(NCCc3ccc(C)c(C)c3)ncn2)sc1-c1noc(=O)[nH]1 [Example 83, 3-(5-{6-[2-(3,4-Dimethyl-phenyl)-ethylamino]-pyrimidin-4-yl}-3-ethoxy-thiophen-2-yl)-[1,2,4]oxadiazol-5(4H)-one]
7 | 166 nM | 358 nM | 116 nM | CCOc1cc(-c2cc(NCCc3ccc(Br)cc3OC(F)(F)F)ncn2)sc1-c1noc(=O)[nH]1 [Example 84, 3-(5-{6-[2-(4-Bromo-2-trifluoromethoxy-phenyl)-ethylamino]-pyrimidin-4-yl}-3-ethoxy-thiophen-2yl)-[1,2,4]oxadiazol-5(4H)-one]
8 | 399 nM | 956 nM | 101 nM | CCOc1cc(-c2cc(NCCc3ccc(Br)cc3CC)ncn2)sc1-c1noc(=O)[nH]1 [Example 104, 3-(5-{6-[2-(4-Bromo-2-ethyl-phenyl)-ethylamino]-pyrimidin-4-yl}-3-ethoxy-thiophen-2-yl)-[1,2,4]oxadiazol-5(4H)-one]
9 | 19 nM | 906 nM | 8 nM | CCOc1cc(-c2cc(NCCc3ccc(OC)c(Cl)c3)ncn2)sc1-c1noc(=O)[nH]1 [Example 122, 3-(5-{6-[2-(3-Chloro-4-methoxy-phenyl)-ethylamino]-pyrimidin-4-yl}-3-ethoxy-thiophen-2yl)-[1,2,4]oxadiazol-5(4H)-one]
10 | 235 nM | 629 nM | 34 nM | CCOc1cc(-c2cc(NCCc3ccc(Br)cc3)ncn2)sc1C(N)=O [Example 128, 5-{6-[2-(4-Bromo-phenyl)-ethylamino]-pyrimidin-4-yl}-3-ethoxy-thiophene-2-carboxylic acid amide]
11 | 60 nM | 594 nM | 6 nM | CCOc1cc(-c2cc(NCCc3ccc(Br)cc3)ncn2)sc1-c1noc(=S)[nH]1 [Example 132, 3-(5-{6-[2-(4-Bromo-phenyl)-ethylamino]-pyrimidin-4-yl}-3-ethoxy-thiophen-2-yl)-[1,2,4]oxadiazole-5(4H)-thione]
12 | 718 nM | 284 nM | 98 nM | NC(=O)c1sc(-c2cc(NCCc3c(F)cc(Br)cc3F)ncn2)cc1C(F)(F)F [Example 134, 5-{6-[2-(4-Bromo-2,6-difluoro-phenyl)-ethylamino]-pyrimidin-4-yl}-3-trifluoromethyl-thiophene-2-carboxylic acid amide]
13 | 834 nM | 490 nM |  | O=c1[nH]c(-c2cccc(-c3cc(NCCc4ccc(Br)cc4)ncn3)c2)no1 [Example 147, 3-(3-{6-[2-(4-Bromo-phenyl)-ethylamino]-pyrimidin-4-yl}-phenyl)-[1,2,4]oxadiazol-5(4H)-one]

Further lines, the compound ahead of its results:

Row | Compound | IC50 (EP4) | IC50 (EP2) | IC50 (PTRGER4 (EP4))
14 | Cc1ccc(CCNc2cc(-c3ccc(C(=O)O)c(OC4CCC4)c3)ncn2)cc1C [Example 20, 2-Cyclobutoxy-4-{6-[2-(3,4-dimethyl-phenyl)-ethylamino]-pyrimidin-4-yl}-benzoic acid] | 574 nM | 498 nM | 446 nM
15 | Oc1cc(-c2ccc(-c3cc(NCCc4c(F)cc(Br)cc4F)ncn3)cc2)on1 [Example 33, 5-(4-{6-[2-(4-Bromo-2,6-difluoro-phenyl)-ethylamino]-pyrimidin-4-yl}-phenyl)-isoxazol-3-ol] | 149 nM | 1130 nM | 156 nM
16 | O=c1nc(-c2ccc(-c3cc(NCCc4c(F)cc(Br)cc4F)ncn3)cc2)o[nH]1 [Example 34, 5-(4-(6-((4-Bromo-2,6-difluorophenethyl)amino)pyrimidin-4-yl)phenyl)-[1,2,4]oxadiazol-3(2H)-one] | 676 nM | 437 nM | 261 nM
17 | CCOc1cc(-c2cc(NCCc3ccc(C)cc3C)ncn2)sc1C(=O)O [Example 57, 5-{6-[2-(2,4-Dimethyl-phenyl)-ethylamino]-pyrimidin-4-yl}-3-ethoxy-thiophene-2-carboxylic acid] | 166 nM | 295 nM | 1160 nM
18 | CCOc1cc(-c2cc(NCCc3cccc(C(F)(F)F)c3)ncn2)sc1C(=O)O [Example 61, 3-Ethoxy-5-{6-[2-(3-trifluoromethyl-phenyl)-ethylamino]-pyrimidin-4-yl}-thiophene-2-carboxylic acid] | 161 nM | 715 nM | 363 nM
19 | CCOc1cc(-c2cc(NCCc3cc(OC)cc(OC)c3)ncn2)sc1C(=O)O [Example 67, 5-{6-[2-(3,5-Dimethoxy-phenyl)-ethylamino]-pyrimidin-4-yl}-3-ethoxy-thiophene-2-carboxylic acid] | 245 nM | 712 nM | 261 nM
20 | CCOc1cc(-c2cc(NCCc3ccc(O)cc3)ncn2)sc1C(=O)O [Example 69, 3-Ethoxy-5-{6-[2-(4-hydroxy-phenyl)-ethylamino]-pyrimidin-4-yl}-thiophene-2-carboxylic acid] | 170 nM | 382 nM | 915 nM
21 | CCOc1cc(-c2cc(NCCc3ccc(OC)c(Br)c3)ncn2)sc1C(=O)O [Example 74, 5-{6-[2-(3-Bromo-4-methoxy-phenyl)-ethylamino]-pyrimidin-4-yl}-3-ethoxy-thiophene-2-carboxylic acid] | 33 nM | 533 nM | 90 nM
22 | CCOc1cc(-c2cc(NCCc3cccc(Cl)c3)ncn2)sc1C(=O)O [Example 77, 5-{6-[2-(3-Chloro-phenyl)-ethylamino]-pyrimidin-4-yl}-3-ethoxy-thiophene-2-carboxylic acid] | 108 nM | 415 nM | 121 nM
23 | CCOc1cc(-c2cc(NCCc3ccc(Cl)cc3NC)ncn2)sc1-c1noc(=O)[nH]1 [Example 91, 3-(5-{6-[2-(4-Chloro-2-methylamino-phenyl)-ethylamino]-pyrimidin-4-yl}-3-ethoxy-thiophen-2yl)-[1,2,4]oxadiazol-5(4H)-one] | 335 nM | 2840 nM | 42 nM
24 | CCOc1cc(-c2cc(NCCc3ccc(C(F)(F)F)cc3F)ncn2)sc1-c1noc(=O)[nH]1 [Example 93, 3-(3-Ethoxy-5-{6-[2-(2-fluoro-4-trifluoromethyl-phenyl)-ethylamino]-pyrimidin-4-yl}-thiophen-2yl)-[1,2,4]oxadiazol-5(4H)-one] | 6 nM | 509 nM | 3 nM
25 | CCOc1cc(-c2cc(NCCc3ccc(Br)cc3N3CCCC3)ncn2)sc1-c1noc(=O)[nH]1 [Example 112, 3-(5-{6-[2-(4-Bromo-2-pyrrolidin-1-yl-phenyl)-ethylamino]-pyrimidin-4-yl}-3-ethoxy-thiophen-2yl)-[1,2,4]oxadiazol-5(4H)-one] | 192 nM | 892 nM | 80 nM
26 | CCOc1cc(-c2cc(NCCc3ccc(Br)cc3)ncn2)sc1C(=N)NO [Example 129, 5-{6-[2-(4-Bromo-phenyl)-ethylamino]-pyrimidin-4-yl}-3-ethoxy-N-hydroxy-thiophene-2-carboxamidine] | 247 nM | 372 nM | 45 nM
27 | CCOc1cc(-c2cc(NCCc3ccc(Br)cc3)ncn2)sc1Cc1noc(=O)[nH]1 [Example 137, 3-(5-{6-[2-(4-Bromo-phenyl)-ethylamino]-pyrimidin-4-yl}-3-ethoxy-thiophen-2-ylmethyl)-[1,2,4]oxadiazol-5(4H)-one] | 963 nM | 371 nM | 411 nM
28 | CCOc1cc(-c2cc(NCCc3ccc(Br)cc3)ncn2)sc1-c1noc(N)n1 [Example 139, {6-[5-(5-Amino-[1,2,4]oxadiazol-3-yl)-4-ethoxy-thiophen-2-yl]-pyrimidin-4-yl}-[2-(4-bromo-phenyl)-ethyl]-amine] | 149 nM | 290 nM | 6 nM
29 | CCOc1cc(-c2cc(NCCc3ccc(Br)cc3)ncn2)sc1-c1noc(OC)n1 [Example 140, [2-(4-Bromo-phenyl)-ethyl]-{6-[4-ethoxy-5-(5-methoxy-[1,2,4]oxadiazol-3-yl)-thiophen-2-yl]-pyrimidin-4-yl}-amine] | 218 nM | 345 nM | 12 nM
30 | CCOc1cc(-c2cc(NCCc3ccc(Br)cc3)ncn2)sc1-c1noc(CO)n1 [Example 143, [3-(5-{6-[2-(4-Bromo-phenyl)-ethylamino]-pyrimidin-4-yl}-3-ethoxy-thiophen-2-yl)-[1,2,4]oxadiazol-5-yl]-methanol] | 344 nM | 604 nM | 
31 | CCOc1cc(-c2cc(NCCc3ccc(Br)cc3)ncn2)sc1C(C)O (stereo not drawn) [Example 145, 1-(5-{6-[2-(4-Bromo-phenyl)-ethylamino]-pyrimidin-4-yl}-3-ethoxy-thiophen-2-yl)-ethanol] | 690 nM | 1120 nM | 
